# Patent US11420944B2, “Voltage-dependent t-type calcium channel blocker” (Nippon Chemiphar Co., Ltd., priority 2016, dated 2022)
# Counter-ions that a name gives are not always drawn.
# Target: T1, human Cav3.2 channels (Homo sapiens, UniProt O95180)
# T1 construct: expressed in transfected cells; host or cells: HEK293 cells (ATCC No. CRL-1573), plasmid pcDNA3.1(+)
# Experiment: Intracellular calcium concentration measurement (Fluo-4 AM) in stable cells expressing human Cav3.2 channels, buffer A / buffer B
# Assay type: cell-based
# Conditions: Table 1; buffer A, equilibrium potential of potassium −92 mV; read-out: Inhibitory action of buffer A (inactivated state)
# Text: Construction of Stable Cells Expressing Human Cav3.2 Channels
# (1) A sequence produced by incorporating HindIII site and kozak sequence (GCCACC) into the 5′-terminal side of human Cav3.2 channel ORF (Open Reading Frame) gene and incorporating Kpnl site into the 3′-terminal side was incorporated into pcDNA3.1(+) (Thermo-Fisher Scientific, Inc., #V790-20), and the plasmid was transfected into HEK293 cells (ATCC No. CRL-1573) according to the protocol of FuGENE (registered trademark) HD Transfection Reagent (PROMEGA #E2311).
# (2) Method for Measuring Intracellular Calcium Concentration
# In the present measurement system, buffer A and buffer B having different potassium ion concentrations were used in order to evaluate the state-dependent Cav3.2 inhibitory action of a test compound.
# Stable cell line expressing human Cav3.2 channels, which had been produced in (1), was seeded in a 96-well plate using DMEM medium including 10% FBS, and the cells were cultured for 48 hours under the conditions of 37° C. and 5% CO2. Subsequently, the medium was removed, and various wells that had been washed with a base buffer were treated with 80 μL of a fluorescent dye solution containing a mixed liquid of 22 μg of calcium fluorescence indicator Fluo-4 AM (Dojindo Laboratories Co., Ltd., #F311), 20 μL of DMSO, […] of 10% Pluronic F-127 (Thermo-Fisher Scientific, Inc., #P6866), and 4 mL of a base buffer. The cells were left to stand for 45 minutes at room temperature in the dark, and then the cells were washed with buffer A or buffer B. Solutions having various test compound concentrations and respectively containing buffer A or buffer B were added to the respective wells, the respective solutions containing DMSO at the same final concentration as that of the test compound as negative control, or containing the test compound dissolved in 100% DMSO at a final concentration of 0.1%. The cells were left to stand for another 15 minutes at room temperature in the dark, and the cells were analyzed using the following method using a microplate reader, EnVision (PerkinElmer, Inc.). First, the background fluorescence for each well was measured, subsequently an ionophore was added to the well, and the fluorescence of the baseline was measured. Subsequently, buffer A or buffer B containing added KCl at a concentration of 83.8 mM or 91.8 mM was added to each well, and an increase in fluorescence caused by a calcium influx generated by that stimulus was measured for 10 seconds. The percentage inhibition was calculated from the maximum fluorescence increment from the baseline, and the logarithmic value of the test compound concentration and the inhibitory activity were plotted to calculate the IC50 value. The analysis was carried out by measuring the fluorescence at 510 nm emitted when the cells were irradiated with exciting light at 485 nm.
# Base buffer: 140 mM NaCl, 5 mM KCl, 1 mM MgCl2, 0.5 mM CaCl2, 10 mM Glucose, and 10 mM HEPES, pH 7.3
# Buffer A: Equilibrium potential of potassium: −92 mV
# T1 sequence (O95180 whole entry): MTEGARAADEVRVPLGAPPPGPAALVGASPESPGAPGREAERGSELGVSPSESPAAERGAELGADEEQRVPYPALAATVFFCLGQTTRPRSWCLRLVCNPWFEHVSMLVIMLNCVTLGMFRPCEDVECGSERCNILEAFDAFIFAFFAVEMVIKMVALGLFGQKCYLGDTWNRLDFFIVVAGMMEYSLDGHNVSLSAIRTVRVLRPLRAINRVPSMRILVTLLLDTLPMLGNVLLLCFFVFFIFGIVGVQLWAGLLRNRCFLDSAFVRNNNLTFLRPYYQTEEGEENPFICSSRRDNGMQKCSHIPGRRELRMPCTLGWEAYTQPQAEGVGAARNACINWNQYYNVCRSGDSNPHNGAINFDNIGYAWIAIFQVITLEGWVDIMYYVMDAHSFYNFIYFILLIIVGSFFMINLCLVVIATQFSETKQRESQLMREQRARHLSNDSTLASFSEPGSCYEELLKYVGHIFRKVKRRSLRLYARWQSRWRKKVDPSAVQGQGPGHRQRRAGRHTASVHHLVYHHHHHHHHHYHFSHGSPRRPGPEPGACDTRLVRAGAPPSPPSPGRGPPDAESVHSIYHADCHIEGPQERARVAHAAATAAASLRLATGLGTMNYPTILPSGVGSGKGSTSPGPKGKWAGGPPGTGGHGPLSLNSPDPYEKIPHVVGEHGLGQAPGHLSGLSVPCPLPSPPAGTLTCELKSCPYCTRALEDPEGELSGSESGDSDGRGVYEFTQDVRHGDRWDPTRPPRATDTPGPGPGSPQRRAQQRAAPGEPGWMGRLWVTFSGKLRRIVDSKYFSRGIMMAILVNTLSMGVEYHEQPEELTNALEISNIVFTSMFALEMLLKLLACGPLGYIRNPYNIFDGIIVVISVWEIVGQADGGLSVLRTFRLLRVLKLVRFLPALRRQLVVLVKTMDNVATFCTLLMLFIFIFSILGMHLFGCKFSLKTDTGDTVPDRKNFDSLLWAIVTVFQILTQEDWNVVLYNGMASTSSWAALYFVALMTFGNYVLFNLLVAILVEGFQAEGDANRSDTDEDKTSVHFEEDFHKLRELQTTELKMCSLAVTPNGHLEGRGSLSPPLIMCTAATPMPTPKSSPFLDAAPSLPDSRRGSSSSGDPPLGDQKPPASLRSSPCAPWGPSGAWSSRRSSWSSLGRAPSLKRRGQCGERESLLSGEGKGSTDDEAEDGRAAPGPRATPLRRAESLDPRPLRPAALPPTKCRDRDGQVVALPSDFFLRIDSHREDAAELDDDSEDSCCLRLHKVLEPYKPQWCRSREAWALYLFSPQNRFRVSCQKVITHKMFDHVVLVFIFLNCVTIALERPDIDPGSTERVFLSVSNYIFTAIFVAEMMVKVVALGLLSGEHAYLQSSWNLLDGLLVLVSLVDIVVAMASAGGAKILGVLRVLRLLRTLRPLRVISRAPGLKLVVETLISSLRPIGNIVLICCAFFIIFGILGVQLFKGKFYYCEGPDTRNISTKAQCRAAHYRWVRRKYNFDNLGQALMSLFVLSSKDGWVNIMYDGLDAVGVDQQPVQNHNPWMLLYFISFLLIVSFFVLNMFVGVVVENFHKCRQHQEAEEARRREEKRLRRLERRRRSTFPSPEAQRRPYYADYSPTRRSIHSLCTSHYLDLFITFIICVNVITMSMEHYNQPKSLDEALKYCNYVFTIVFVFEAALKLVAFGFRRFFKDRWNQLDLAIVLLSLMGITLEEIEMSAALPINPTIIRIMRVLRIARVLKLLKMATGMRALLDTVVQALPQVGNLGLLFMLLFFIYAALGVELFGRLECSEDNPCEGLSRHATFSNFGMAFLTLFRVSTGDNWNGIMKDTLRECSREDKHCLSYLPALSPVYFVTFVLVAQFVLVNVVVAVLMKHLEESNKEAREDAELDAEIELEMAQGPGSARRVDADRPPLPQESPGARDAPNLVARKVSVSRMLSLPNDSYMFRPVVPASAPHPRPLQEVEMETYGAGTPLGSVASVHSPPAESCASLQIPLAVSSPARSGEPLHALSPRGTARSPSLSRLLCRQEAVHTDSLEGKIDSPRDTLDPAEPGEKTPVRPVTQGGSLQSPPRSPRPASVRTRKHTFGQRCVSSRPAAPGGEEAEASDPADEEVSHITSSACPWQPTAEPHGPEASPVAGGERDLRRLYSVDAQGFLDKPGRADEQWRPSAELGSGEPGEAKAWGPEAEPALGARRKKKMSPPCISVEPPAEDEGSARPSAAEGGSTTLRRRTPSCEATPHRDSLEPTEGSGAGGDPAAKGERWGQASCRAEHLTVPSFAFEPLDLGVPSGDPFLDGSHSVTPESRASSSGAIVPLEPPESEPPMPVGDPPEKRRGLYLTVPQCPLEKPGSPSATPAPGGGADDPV
row,IC50,Compound
1,> 10 µM,C[C@@H](NC(=O)C1CC1c1nc2ccccc2[nH]1)c1cnn(CCC(F)(F)F)c1 (stereo partly shown) [Example 9]
2,0.1 to 1 µM,"CC(NC(=O)C1CC1c1nc2ccccc2[nH]1)c1cn(C(=O)OC(C)(C)C)c2ccccc12 (stereo not drawn) [Example 10, Trans-3-(1-(2-(1H-benzo[d]imidazol-2-yl)cyclopropanecarboxamido)ethyl)-1H-indole-1-carboxylic acid tert-butyl ester]"
3,> 10 µM,"C[C@@H](NC(=O)[C@@H]1CCN(c2nc3ccccc3s2)C1)c1ccc(OCC(F)(F)F)s1 [Example 13, (R)-1-(benzo[d]thiazol-2-yl)-N—((R)-1-(5-(2,2,2-trifluoroethoxy)thiophen-2-yl)ethyl)pyrrolidine-3-carboxamide]"
4,1 to 10 µM,"C[C@@H](NC(=O)[C@H]1CCN(CC(=O)NC(C)(C)C)C1)c1ccc(OCC(F)(F)F)s1 [Example 14, (S)-1-(2-(tert-butylamino)-2-oxoethyl)-N—((R)-1-(5-(2,2,2-trifluoroethoxy)thiophen-2-yl)ethyl)pyrrolidine-3-carboxamide hydrochloride]"
5,0.1 to 1 µM,"C[C@@H](NC(=O)[C@@H]1CCN(CC(=O)Nc2nccs2)C1)c1ccc(OCC(F)(F)F)s1 [Example 16, (R)-1-(2-oxoethyl-2-(thiazol-2-ylamino)ethyl)-N—((R)-1-(5-(2,2,2-trifluoroethoxy)thiophen-2-yl)ethyl)pyrrolidine-3-carboxamide]"
6,1 to 10 µM,"C[C@@H](NC(=O)[C@@H]1CCN(CCC(C)(C)C)C1)c1ccc(OCC(F)(F)F)s1 [Example 18, (R)-1-(3,3-dimethylbutyl)-N—((R)-1-(5-(2,2,2-trifluoroethoxy)thiophen-2-yl)ethyl)pyrrolidine-3-carboxamide hydrochloride]"

# Same assay, conditions: Table 1; buffer B, equilibrium potential of potassium −110 mV; read-out: Inhibitory action of buffer B (resting state or closed state)
row,IC50,Compound
1,0.1 to 1 µM,"CC(NC(=O)C1CC1c1nc2ccccc2[nH]1)c1cn(C(=O)OC(C)(C)C)c2ccccc12 (stereo not drawn) [Example 10, Trans-3-(1-(2-(1H-benzo[d]imidazol-2-yl)cyclopropanecarboxamido)ethyl)-1H-indole-1-carboxylic acid tert-butyl ester]"
2,1 to 10 µM,"C[C@@H](NC(=O)[C@H]1CCN(CC(=O)NC(C)(C)C)C1)c1ccc(OCC(F)(F)F)s1 [Example 14, (S)-1-(2-(tert-butylamino)-2-oxoethyl)-N—((R)-1-(5-(2,2,2-trifluoroethoxy)thiophen-2-yl)ethyl)pyrrolidine-3-carboxamide hydrochloride]"
3,1 to 10 µM,"C[C@@H](NC(=O)[C@@H]1CCN(CC(=O)Nc2nccs2)C1)c1ccc(OCC(F)(F)F)s1 [Example 16, (R)-1-(2-oxoethyl-2-(thiazol-2-ylamino)ethyl)-N—((R)-1-(5-(2,2,2-trifluoroethoxy)thiophen-2-yl)ethyl)pyrrolidine-3-carboxamide]"
4,1 to 10 µM,"C[C@@H](NC(=O)[C@@H]1CCN(CCC(C)(C)C)C1)c1ccc(OCC(F)(F)F)s1 [Example 18, (R)-1-(3,3-dimethylbutyl)-N—((R)-1-(5-(2,2,2-trifluoroethoxy)thiophen-2-yl)ethyl)pyrrolidine-3-carboxamide hydrochloride]"

# Same assay, conditions: Tables 2 to 6; buffer A, equilibrium potential of potassium −92 mV; read-out: Inhibitory action of buffer A (inactivated state)
row,IC50,Compound
1,0.1 to 1 µM,"C[C@@H](NC(=O)C1CC1c1c[nH]c2ccccc12)c1cc2cc(F)ccc2o1 (single isomer, unassigned) [Example 98A]"
2,0.1 to 1 µM,"C[C@@H](NC(=O)C1CC1c1c[nH]c2ccccc12)c1cc2cc(F)ccc2o1 (single isomer, unassigned) [Example 98B]"
3,0.1 to 1 µM,"C[C@@H](NC(=O)C1CC1c1ccc2cnn(C)c2c1)c1cc2cc(F)ccc2o1 (single isomer, unassigned) [Example 103A]"
4,> 10 µM,"C[C@@H](NC(=O)C1CC1c1ccc2cnn(C)c2c1)c1cc2cc(F)ccc2o1 (single isomer, unassigned) [Example 103B]"
5,1 to 10 µM,"Cc1ccc2nc(C3CC3C(=O)N[C@H](C)c3ccc(OCC(F)(F)F)s3)[nH]c2n1 (single isomer, unassigned) [Example 106A]"
6,1 to 10 µM,"Cc1ccc2nc(C3CC3C(=O)N[C@H](C)c3ccc(OCC(F)(F)F)s3)[nH]c2n1 (single isomer, unassigned) [Example 106B]"
7,0.1 to 1 µM,"C[C@@H](NC(=O)C1CC1c1nc2cc(Cl)ccc2o1)c1cc2cc(F)ccc2o1 (single isomer, unassigned) [Example 108A]"
8,0.1 to 1 µM,"C[C@@H](NC(=O)C1CC1c1nc2cc(Cl)ccc2o1)c1cc2cc(F)ccc2o1 (single isomer, unassigned) [Example 108B]"
9,1 to 10 µM,"C[C@@H](NC(=O)C1CC1COc1ccc(F)cc1)c1cc2cc(F)ccc2o1 (single isomer, unassigned) [Example 112A]"
10,0.1 to 1 µM,"C[C@@H](NC(=O)C1CC1COc1ccc(F)cc1)c1cc2cc(F)ccc2o1 (single isomer, unassigned) [Example 112B]"
11,1 to 10 µM,"C[C@@H](NC(=O)C1CC1c1ncc2ccccn12)c1cc2cc(F)ccc2o1 (single isomer, unassigned) [Example 117B]"
12,≤ 0.1 µM,"C[C@@H](NC(=O)C1CC1c1nc2c(Cl)cccc2[nH]1)c1ccc(OCC(F)(F)F)s1 (single isomer, unassigned) [Example 122A]"
13,0.1 to 1 µM,"C[C@@H](NC(=O)C1CC1c1nc2c(Cl)cccc2[nH]1)c1ccc(OCC(F)(F)F)s1 (single isomer, unassigned) [Example 122B]"
14,0.1 to 1 µM,"CC(NC(=O)[C@H]1C[C@@H]1c1nc2ccccc2[nH]1)c1nc2ccc(F)cc2[nH]1 (single isomer, unassigned) [Example 127A]"
15,1 to 10 µM,"CC(NC(=O)[C@H]1C[C@@H]1c1nc2ccccc2[nH]1)c1nc2ccc(F)cc2[nH]1 (single isomer, unassigned) [Example 127B]"
16,0.1 to 1 µM,"C[C@@H](NC(=O)C1CC1C(=O)Nc1cccc(C(F)(F)F)c1)c1cc2cc(F)ccc2o1 (single isomer, unassigned) [Example 130B]"
17,1 to 10 µM,"C[C@@H](NC(=O)C1CC1c1nc2ccccc2[nH]1)c1ccc(C(=O)N2CCOCC2)s1 (stereo in doubt) [Example 56, Trans-2-(1H-benzo[d]imidazol-2-yl)-N—((R)-1-(5-(morpholine-4-carbonyl)thiophen-2-yl)ethyl)cyclopropane-1-carboxamide]"
18,1 to 10 µM,"C[C@@H](NC(=O)C1CC1c1nc2ccccc2[nH]1)c1ccc(C(=O)N2CCCC2(C)C)s1 (stereo in doubt) [Example 67, Trans-2-(1H-benzo[d]imidazol-2-yl)-N—((R)-1-(5-(2,2-dimethylpyrrolidine-1-carbonyl)thiophen-2-yl)ethyl)cyclopropane-1-carboxamide]"
19,1 to 10 µM,"C[C@@H](NC(=O)C1CC1c1nc2ccccc2[nH]1)c1ccc(C(=O)N2CCN(C)CC2)s1 (stereo in doubt) [Example 68, Trans-2-(1H-benzo[d]imidazol-2-yl)-N—((R)-1-(5-(4-methylpiperazine-1-carbonyl)thiophen-2-yl)ethyl)cyclopropane-1-carboxamide]"
20,1 to 10 µM,"C[C@@H](NC(=O)C1CC1c1nc2ccccc2[nH]1)c1ccc(C(=O)N2CCNCC2)s1 (stereo in doubt) [Example 75, Trans-2-(1H-benzo[d]imidazol-2-yl)-N—((R)-1-(5-(piperazine-1-carbonyl)thiophen-2-yl)ethyl)cyclopropane-1-carboxamide]"
21,1 to 10 µM,"C[C@@H](NC(=O)[C@@H]1C[C@H]1c1nc2ccccc2[nH]1)c1ccc(C(=O)OC(C)(C)C)s1 [Example 25B, Trans-5-((1R)-1-(2-(1H-benzo[d]imidazol-2-yl)cyclopropane-1-carboxamido)ethyl)thiophene-2-carboxylic acid tert-butyl ester]"
22,1 to 10 µM,"C[C@@H](NC(=O)[C@@H]1CCN(CC(=O)Nc2cnccn2)C1)c1ccc(OCC(F)(F)F)s1 [Example 37, (R)-1-(2-oxo-2-(pyrazin-2-ylamino)ethyl)-N—((R)-1-(5-(2,2,2-trifluoroethoxy)thiophen-2-yl)ethyl)pyrrolidine-3-carboxamide]"
23,1 to 10 µM,"C[C@@H](NC(=O)[C@@H]1CCN(c2ccc(C(F)(F)F)cn2)C1)c1ccc(OCC(F)(F)F)s1 [Example 41, (R)—N—((R)-1-(5-(2,2,2-trifluoroethoxy)thiophen-2-yl)ethyl)-1-(5-(trifluoromethyl)pyridin-2-yl)pyrrolidine-3-carboxamide]"
24,0.1 to 1 µM,"C[C@@H](NC(=O)[C@H]1C[C@@H]1c1nc(-c2ccccn2)c[nH]1)c1ccc(OCC(F)(F)F)s1 [Example 46, (1S,2S)-2-(4-(pyridin-2-yl)-1H-imidazol-2-yl)-N—((R)-1-(5-(2,2,2-trifluoroethoxy)thiophen-2-yl)ethyl)cyclopropane-1-carboxamide]"
